Where a name gives a salt, the structure may show the parent alone.
Experiments:
Format in all cases: biochemical
[1] = molecular target: T1, AKT1 (Homo sapiens, UniProt P31749); experiment: AKT Kinase Assay (IMAP fluorescent polarisation) vs AKT1; details: activated AKT1, FAM Crosstide substrate
T1 construct: purchased SignalChem
Protocol: (§1) Testing of the compounds was performed using an AKT Kinase Assay:
(§2) Activated AKT isoforms 1, 2 and 3 were assayed utilising a 5′ FAM Crosstide (Seq. GRPRTSSFAEG-OH). The extent of kinase phosphorylation was determined by fluorescent polarisation using IMAP progressive binding reagent, which introduces binding beads which allow the reagent to specifically bind to phosphate residues via covalent co-ordination complex bonds.
(§3) iMAP binding solution stops Crosstide/kinase interaction and specifically binds phosphorylated substrates. The degree of phosphorylation is determined by fluorescent polarisation (excitation 485 nm; emission 528 nm) or the reduction in speed of rotation of the excited substrate.
(§4) The following materials were used in the assay: • a) Activated AKT isoforms (SignalChem.) dissolved in Complete Reaction buffer at a pre-determined concentration selected so that the assay was carried out in the linear range. • b) AKT substrate peptide: FAM Crosstide (R7110) Molecular Devices, diluted in complete reaction buffer. • c) iMAP Progressive Screening Express Kit (R8127) Molecular Devices • d) Complete Reaction Buffer containing 0.1% BSA, 10 mM Tris-HCl, 10 mM MgCl2, 0.05% NaN3 and 0.01% phosphate free BSA, 1 mM DTT • e) Progressive Binding Solution containing 75% Buffer A, 25% Buffer B and low volume Binding Reagent which contains the binding entity for the assay • f) ATP diluted in complete reaction buffer • g) Black polystyrene 384 well assay plates (Nunc). • h) Biotek Synergy 4 Hybrid Plate reader.
(§5) 50 μl of test compound was dissolved in DMSO (Sigma Aldrich) and serially diluted in complete reaction buffer to give a fourteen point half log dose response and plated into 384 well black plates. The compound was incubated at room temperature with activated AKT isoform ([…]) at the pre-determined concentration, for 45 minutes.
(§6) […] of ATP solution mixed with 2.5 μl of AKT substrate peptide (FAM Crosstide (R7110) Molecular Devices) were dispensed into each well and the plate centrifuged at 1000 rpm for 20 seconds to ensure homogenous mixing of reagents. The reaction mix was incubated in the dark for one hour at room temperature.
(§7) The kinase reaction was stopped by the addition of Progressive Binding Solution and the mixture allowed to equilibrate for one hour in the dark, at room temperature.
(§8) The fluorescent polarisation generated in each well was determined using a […] Synergy 4 Hybrid plate reader. In brief, each reaction solution was excited at 485 nm with the emission measured at 528 nm in both the parallel and perpendicular pathway.
(§9) The polarisation value generated in each well was calculated by Gen5 software (Biotek) and the % inhibition of kinase activity compared to vehicle control was calculated via GraphPad Prism. IC50 values for each compound were calculated by non-linear regression analysis using Prism software.
(§10) All plates were internally controlled by two methods. Firstly, by calculating the signal:noise ratio; based on kinase polarisation without inhibitor and polarisation generated by complete reaction buffer in the absence of activated kinase. Secondly by determining IC50 values generated by known inhibitors of the AKT isoforms.

[2] = molecular target: T2, AKT2 (Homo sapiens, UniProt P31751); experiment: AKT Kinase Assay (IMAP fluorescent polarisation) vs AKT2; details: activated AKT2, FAM Crosstide substrate
T2 construct: purchased SignalChem
T2 sequence (P31751 whole entry): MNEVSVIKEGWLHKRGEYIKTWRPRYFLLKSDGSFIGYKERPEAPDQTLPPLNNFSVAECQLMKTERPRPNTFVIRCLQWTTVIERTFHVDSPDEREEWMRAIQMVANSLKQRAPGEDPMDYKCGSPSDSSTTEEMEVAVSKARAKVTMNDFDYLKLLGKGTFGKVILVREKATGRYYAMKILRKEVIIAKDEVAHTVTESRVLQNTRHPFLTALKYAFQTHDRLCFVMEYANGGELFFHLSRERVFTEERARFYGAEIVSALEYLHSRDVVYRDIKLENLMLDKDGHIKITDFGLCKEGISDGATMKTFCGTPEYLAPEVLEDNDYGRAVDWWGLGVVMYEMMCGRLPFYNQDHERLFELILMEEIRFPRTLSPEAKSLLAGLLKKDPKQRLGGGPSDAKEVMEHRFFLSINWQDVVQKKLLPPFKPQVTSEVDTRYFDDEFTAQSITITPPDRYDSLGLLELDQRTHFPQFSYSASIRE
Protocol: as §1, §2, §3, §4, §5, §6, §7, §8, §9, §10

[3] = molecular target: T3, AKT3 (Homo sapiens, UniProt Q9Y243); experiment: AKT Kinase Assay (IMAP fluorescent polarisation) vs AKT3; details: activated AKT3, FAM Crosstide substrate
T3 construct: purchased SignalChem
T3 sequence (Q9Y243 whole entry): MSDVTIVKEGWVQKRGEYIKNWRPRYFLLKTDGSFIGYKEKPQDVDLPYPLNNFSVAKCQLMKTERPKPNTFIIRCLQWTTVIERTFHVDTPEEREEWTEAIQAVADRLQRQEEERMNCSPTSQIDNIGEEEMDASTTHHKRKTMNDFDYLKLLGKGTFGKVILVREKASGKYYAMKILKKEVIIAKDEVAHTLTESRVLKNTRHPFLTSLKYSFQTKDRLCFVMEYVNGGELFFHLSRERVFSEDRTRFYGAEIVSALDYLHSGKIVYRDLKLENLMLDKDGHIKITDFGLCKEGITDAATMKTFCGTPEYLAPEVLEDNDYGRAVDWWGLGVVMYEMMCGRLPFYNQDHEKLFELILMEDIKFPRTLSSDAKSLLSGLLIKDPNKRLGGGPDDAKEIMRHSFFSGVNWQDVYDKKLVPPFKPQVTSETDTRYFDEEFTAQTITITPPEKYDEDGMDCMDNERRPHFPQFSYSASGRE
Protocol: as §1, §2, §3, §4, §5, §6, §7, §8, §9, §10

T1 sequence (P31749 whole entry): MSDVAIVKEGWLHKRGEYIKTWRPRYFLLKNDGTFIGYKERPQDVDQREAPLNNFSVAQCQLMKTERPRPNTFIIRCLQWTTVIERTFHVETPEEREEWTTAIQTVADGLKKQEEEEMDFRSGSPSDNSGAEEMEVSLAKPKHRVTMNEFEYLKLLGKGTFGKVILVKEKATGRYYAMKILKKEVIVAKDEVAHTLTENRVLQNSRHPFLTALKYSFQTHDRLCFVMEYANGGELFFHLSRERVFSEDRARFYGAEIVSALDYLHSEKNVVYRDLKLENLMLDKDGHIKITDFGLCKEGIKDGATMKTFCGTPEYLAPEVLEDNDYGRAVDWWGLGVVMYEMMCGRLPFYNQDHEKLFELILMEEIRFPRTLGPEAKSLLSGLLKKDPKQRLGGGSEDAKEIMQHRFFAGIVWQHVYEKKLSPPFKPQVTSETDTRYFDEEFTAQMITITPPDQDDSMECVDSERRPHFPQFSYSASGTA

SMILES	IC50 [1] [nM]	IC50 [2] [nM]	IC50 [3] [nM]
Cn1c(=O)[nH]c2oc(-c3ccc(C4(N)CCC4)cc3)c(-c3ccccc3)c2c1=O [Example 124, 6-(4-(1-Aminocyclobutyl)phenyl)-3-methyl-5-phenylfuro[2,3-d]pyrimidine-2,4(1H,3H)-dione hydrochloride]	100 to 1000	100 to 1000	> 10000
NC1(c2ccc(-c3oc4ncn(CC(F)F)c(=O)c4c3-c3ccccc3)cc2)CCC1 [Example 108, 6-(4-(1-Aminocyclobutyl)phenyl)-3-(2,2-difluoroethyl)-5-phenylfuro[2,3-d]pyrimidin-4(3H)-one]	1000 to 10000	≤ 100	1000 to 10000
NC1(c2ccc(-c3oc4ncc(COCc5ccccc5)nc4c3-c3ccccc3)cc2)CCC1 [Example 142, 1-(4-(2-(Benzyloxymethyl)-7-phenylfuro[2,3-b]pyrazin-6-yl)phenyl)cyclobutanamine]	100 to 1000	100 to 1000	1000 to 10000
NC1(c2ccc(-c3oc4ncn(CC5CC5)c(=O)c4c3-c3ccccc3)cc2)CCC1 [Example 100]	1000 to 10000	≤ 100	1000 to 10000
COc1nc(-n2ccnc2)nc2oc(-c3ccc(C4(N)CCC4)cc3)c(-c3ccccc3)c12 [Example 44, 1-(4-(2-(1H-Imidazol-1-yl)-4-methoxy-5-phenylfuro[2,3-d]pyrimidin-6-yl)phenyl)cyclobutanamine]	≤ 100	100 to 1000	> 10000
COc1nc(N2CC[C@H](O)C2)nc2oc(-c3ccc(C4(N)CCC4)cc3)c(-c3ccccc3)c12 [Example 35, (S)-1-(6-(4-(1-Aminocyclobutyl)phenyl)-4-methoxy-5-phenylfuro[2,3-d]pyrimidin-2-yl)pyrrolidin-3-ol]	100 to 1000	100 to 1000	1000 to 10000
C[C@@H](O)CNc1nc2oc(-c3ccc(C4(N)CCC4)cc3)c(-c3ccccc3)c2c(=O)n1C [Example 62, (R)-6-(4-(1-Aminocyclobutyl)phenyl)-2-((2-hydroxypropyl)amino)-3-methyl-5-phenylfuro[2,3-d]pyrimidin-4(3H)-one]	100 to 1000	100 to 1000	1000 to 10000
COc1nc(NC(C)=O)nc2oc(-c3ccc(C4(N)CCC4)cc3)c(-c3ccccc3)c12 [Example 48, N-(6-(4-(1-Aminocyclobutyl)phenyl)-4-methoxy-5-phenylfuro[2,3-d]pyrimidin-2-yl)acetamide]	≤ 100	100 to 1000	100 to 1000
NC1(c2ccc(-c3oc4nc(OCCO)ncc4c3-c3ccccc3)cc2)CCC1 [Example 54, 2-((6-(4-(1-Aminocyclobutyl)phenyl)-5-phenylfuro[2,3-d]pyrimidin-2-yl)oxy)ethanol]	≤ 100	100 to 1000	> 10000
Cc1n[nH]c(C)c1-c1cnc2oc(-c3ccc(C4(N)CCC4)cc3)c(-c3ccccc3)c2n1 [Example 143, 1-(4-(2-(3,5-Dimethyl-1H-pyrazol-4-yl)-7-phenylfuro[2,3-b]pyrazin-6-yl)phenyl)cyclobutanamine]	1000 to 10000	1000 to 10000	> 10000
NC1(c2ccc(-c3oc4ncc(Br)cc4c3-c3ccccc3)cc2)CCC1 [Example 11, 1-(4-(5-Bromo-3-phenylfuro[2,3-b]pyridin-2-yl)phenyl)cyclobutanamine.HCl]	> 10000	> 10000	> 10000
COCCNc1nc2oc(-c3ccc(C4(N)CCC4)cc3)c(-c3ccccc3)c2c(=O)n1C [Example 83, 6-(4-(1-Aminocyclobutyl)phenyl)-2-(2-methoxyethylamino)-3-methyl-5-phenylfuro[2,3-d]pyrimidin-4(3H)-one]	100 to 1000	1000 to 10000	1000 to 10000
NC1(c2ccc(-c3oc4ncc(-c5ccn[nH]5)nc4c3-c3ccccc3)cc2)CCC1 [Example 144, 1-(4-(7-Phenyl-2-(1H-pyrazol-5-yl)furo[2,3-b]pyrazin-6-yl)phenyl)cyclobutanamine]	1000 to 10000	1000 to 10000	> 10000
NC(=O)c1cccc(-c2cnc3oc(-c4ccc(C5(N)CCC5)cc4)c(-c4ccccc4)c3n2)c1 [Example 152, 3-(6-(4-(1-Aminocyclobutyl)phenyl)-7-phenylfuro[2,3-b]pyrazin-2-yl)benzamide, HCl]	100 to 1000	1000 to 10000	> 10000
N#Cc1ccc2c(-c3ccccc3)c(-c3ccc(C4(N)CCC4)cc3)oc2c1 [Example 25, 2-(4-(1-Aminocyclobutyl)phenyl)-3-phenylbenzofuran-6-carbonitrile]	1000 to 10000	1000 to 10000	> 10000
NC1(c2ccc(-c3oc4c(Br)cn(CCF)c(=O)c4c3-c3ccccc3)cc2)CCC1 [Example 112]	100 to 1000	≤ 100	> 10000
NC1(c2ccc(-c3oc4ncncc4c3-c3ccccc3)cc2)CCC1 [Example 20, 1-(4-(5-Phenylfuro[2,3-d]pyrimidin-6-yl)phenyl)cyclobutanamine]	1000 to 10000	1000 to 10000	> 10000
COc1nccc2oc(-c3ccc(C4(N)CCC4)cc3)c(-c3ccccc3)c12 [Example 17, 1-(4-(4-Methoxy-3-phenylfuro[3,2-c]pyridin-2-yl)phenyl)cyclobutanamine]	1000 to 10000	1000 to 10000	> 10000
Cn1c(N2CCNC(=O)C2)nc2oc(-c3ccc(C4(N)CCC4)cc3)c(-c3ccccc3)c2c1=O [Example 99, 6-(4-(1-Aminocyclobutyl)phenyl)-3-methyl-2-(3-oxopiperazin-1-yl)-5-phenylfuro[2,3-d]pyrimidin-4(3H)-one]	1000 to 10000	≤ 100	1000 to 10000
CNc1nc2oc(-c3ccc(C4(N)CCC4)cc3)c(-c3ccccc3)c2c(=O)n1CC(F)(F)F [Example 122, 6-(4-(1-Aminocyclobutyl)phenyl)-2-(methylamino)-5-phenyl-3-(2,2,2-trifluoroethyl)furo[2,3-d]pyrimidin-4(3H)-one]	100 to 1000	≤ 100	1000 to 10000
NC1(c2ccc(-c3oc4ncc(CO)nc4c3-c3ccccc3)cc2)CCC1 [Example 145, (6-(4-(1-Aminocyclobutyl)phenyl)-7-phenylfuro[2,3-b]pyrazin-2-yl)methanol]	1000 to 10000	1000 to 10000	> 10000
Nc1cnc2oc(-c3ccc(C4(N)CCC4)cc3)c(-c3ccccc3)c2c1 [Example 22, 2-(4-(1-Aminocyclobutyl)phenyl)-3-phenylfuro[2,3-b]pyridin-5-amine]	1000 to 10000	1000 to 10000	> 10000
NC1(c2ccc(-c3oc4ncn(CCF)c(=O)c4c3-c3ccccc3)cc2)CCC1 [Example 103, 6-(4-(1-Aminocyclobutyl)phenyl)-3-(2-fluoroethyl)-5-phenylfuro[2,3-d]pyrimidin-4(3H)-one, HCl]	100 to 1000	≤ 100	1000 to 10000
NC1(c2ccc(-c3oc4cnccc4c3-c3ccccc3)cc2)CCC1 [Example 2, 1-(4-(3-Phenylfuro[2,3-c]pyridin-2-yl)phenyl)cyclobutanamine]	> 10000	1000 to 10000	> 10000
NC1(c2ccc(-c3oc4ncn(CC(F)(F)F)c(=O)c4c3-c3ccccc3)cc2)CCC1 [Example 106, 6-(4-(1-Aminocyclobutyl)phenyl)-5-phenyl-3-(2,12-trifluoroethyl)furo[2,3-d]pyrimidin-4(3H)-one, HCl]	1000 to 10000	≤ 100	1000 to 10000
NC(=O)c1cccc2c(-c3ccccc3)c(-c3ccc(C4(N)CCC4)cc3)oc12 [Example 9, 2-(4-(1-Aminocyclobutyl)phenyl)-3-phenylbenzofuran-7-carboxamide.2HCl]	1000 to 10000	1000 to 10000	> 10000
NC1(c2ccc(-c3oc4ncc([N+](=O)[O-])cc4c3-c3ccccc3)cc2)CCC1 [Example 21, 1-(4-(5-Nitro-3-phenylfuro[2,3-b]pyridin-2-yl)phenyl)cyclobutanamine]	1000 to 10000	1000 to 10000	> 10000

From patent US20120309739A1, “AKT / PKB INHIBITORS” (ALMAC DISCOVERY LIMITED, priority 2009, published 2012)
